Article PMC7187762 (ACS chemical biology, 2018)
No end group written: not given here.

Legend:
proteinase K = proteinase K (Parengyodontium album, UniProt P06873); test: Resistance to proteinase K digestion; conditions: isolated enzyme proteinase k
[1] = Temperature-dependent circular dichroism; assay type: physicochemical; conditions: CD; at 95°C

Sequence of proteinase K (P06873 106-384, species assumed): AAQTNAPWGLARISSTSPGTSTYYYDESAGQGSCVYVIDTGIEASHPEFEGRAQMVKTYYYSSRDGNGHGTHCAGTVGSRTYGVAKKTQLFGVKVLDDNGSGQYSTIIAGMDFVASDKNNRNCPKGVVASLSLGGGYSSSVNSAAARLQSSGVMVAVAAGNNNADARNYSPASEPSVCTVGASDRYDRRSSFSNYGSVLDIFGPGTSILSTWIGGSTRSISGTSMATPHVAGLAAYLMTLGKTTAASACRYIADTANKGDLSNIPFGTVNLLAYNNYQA

| Substance | half-life (proteinase K) | decrease in spectral intensity at 215 nm [1] |
| --- | --- | --- |
| Ac-TWNPATGKWT-NH2 [HP7Δ] | 0.6 min | – |
| KTWNPATGKWTE [HP7] | 2 min | – |
| NS1 HBS: HBS-stabilized β-hairpin derived from the Ras-binding NS1 monobody (GGWKGQVYYVG; HBS hydrogen bond surrogate constraint) | – | 25% |
